Drawing on patent US6326371A, “Pyrudyl and pyrimidylpiperazine derivatives” (Pharmacia Aktiebolag, priority 1992, dated 2001), this text covers Ki for 2 compounds.

The experiment addresses T1, 5-HT2 receptors (Rattus norvegicus, UniProt P14842).
T1 construct: essentially as described by Leysen et al. (Mol. Pharmacol. 21, 301-14, 1982) using; from tissue
Description: Affinity to 5-HT2 receptors (Test 1, 3H-ketanserin binding). Particulars: 3H-ketanserin as ligand. Here is the method:
Test 1. Affinity to 5-HT2 receptors.
The binding assay is carried out essentially as described by Leysen et al. (Mol. Pharmacol. 21, 301-14, 1982) using ^3 H-ketanserin as ligand.

SMILES strings stand for the structures. Structures can show the parent of a compound that is named as a salt.

T1 sequence (P14842 whole entry): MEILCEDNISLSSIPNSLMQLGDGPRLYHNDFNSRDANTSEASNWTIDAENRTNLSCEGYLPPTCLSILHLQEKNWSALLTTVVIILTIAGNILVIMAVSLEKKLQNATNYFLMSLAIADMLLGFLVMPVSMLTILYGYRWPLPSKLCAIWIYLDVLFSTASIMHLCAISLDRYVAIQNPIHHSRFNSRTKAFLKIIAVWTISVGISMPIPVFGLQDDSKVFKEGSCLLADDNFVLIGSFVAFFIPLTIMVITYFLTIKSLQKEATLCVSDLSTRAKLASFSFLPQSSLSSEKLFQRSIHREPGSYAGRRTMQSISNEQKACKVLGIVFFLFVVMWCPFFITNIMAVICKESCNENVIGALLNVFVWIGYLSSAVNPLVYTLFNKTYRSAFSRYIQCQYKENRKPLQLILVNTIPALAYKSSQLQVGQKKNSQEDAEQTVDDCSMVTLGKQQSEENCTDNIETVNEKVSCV

A word on the Ki: it is a dissociation constant, usually derived from enzyme kinetics or from competition with a known ligand. Take `Fc1ccc(N(CCCN2CCN(c3ccccn3)CC2)c2ccc(F)cc2)cc1` [1:1, 1-{3-[Bis-(4-fluorophenyl)amino]propyl}-4-(2-pyridyl)-piperazine-dihydrochloride]: affinity was put at a Ki of 18 nM.
In turn, `Fc1ccc(C(OCCN2CCN(c3ccccn3)CC2)c2ccc(F)cc2)cc1` [3:1, 4-{2-[(4.4'-Difluorobenzhydryl)oxyl]ethyl}-1-(2-pyridyl)piperazine dihydrochloride] came in with an inhibition constant (Ki) of 11 nM. Compared with the last compound, the Ki is about 1.6-fold lower.
